Data set [1] is described as follows: Protein binding in mouse plasma. The data set is classed as ADME, cell-free. As to conditions: read-out: PPB (converted).
Data set [2] relates to Liver microsomes. Put plainly: Metabolic stability in human liver microsomes assessed as intrinsic clearance. In kind it is ADME, Microsome. Set-up: unit not given here.
Data set [3] has as its system Helicobacter pylori. Put plainly: Antimicrobial activity against Helicobacter pylori SS1 by NCCLS method. The data set is classed as functional.
Data set [4] can be described thus: Metabolic stability in mouse liver microsomes assessed as intrinsic clearance. In kind it is ADME, Microsome. More on the design: unit not given here. In general terms: Liver microsomes are vesicles of endoplasmic reticulum, rich in cytochrome P450 enzymes.
Data set [5] concerns the target T1, Glutamate racemase (Helicobacter pylori J99, UniProt Q9ZLT0).
T1 sequence (Q9ZLT0 whole entry): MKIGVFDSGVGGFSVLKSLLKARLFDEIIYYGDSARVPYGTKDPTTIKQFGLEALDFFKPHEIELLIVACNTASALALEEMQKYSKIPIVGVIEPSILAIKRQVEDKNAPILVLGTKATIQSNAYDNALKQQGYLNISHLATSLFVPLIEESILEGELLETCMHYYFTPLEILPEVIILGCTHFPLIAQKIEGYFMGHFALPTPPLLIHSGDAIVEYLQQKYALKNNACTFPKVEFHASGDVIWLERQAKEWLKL
Nature of the data set: Inhibition of MurI in wild type Helicobacter pylori J99.

Data set [6] is described as follows: Distribution coefficient, log D of the compound. The data set is classed as physicochemical. The following applies: octanol/water.
Data set [7] in a line: Inhibition of Escherichia coli MurI.
For data set [8], the system named is Staphylococcus aureus. Put plainly: Antimicrobial activity against Staphylococcus aureus. The data set is classed as functional.
For data set [9], the system named is Enterococcus faecalis. Nature of the data set: Antimicrobial activity against Enterococcus faecalis. In kind it is functional.
The nature of data set [10]: Inhibition of Staphylococcus aureus MurI.
For data set [11], the target named is T2, Glutamate racemase (Enterococcus faecalis (strain ATCC 700802 / V583), UniProt Q836J0).
T2 sequence (Q836J0 whole entry): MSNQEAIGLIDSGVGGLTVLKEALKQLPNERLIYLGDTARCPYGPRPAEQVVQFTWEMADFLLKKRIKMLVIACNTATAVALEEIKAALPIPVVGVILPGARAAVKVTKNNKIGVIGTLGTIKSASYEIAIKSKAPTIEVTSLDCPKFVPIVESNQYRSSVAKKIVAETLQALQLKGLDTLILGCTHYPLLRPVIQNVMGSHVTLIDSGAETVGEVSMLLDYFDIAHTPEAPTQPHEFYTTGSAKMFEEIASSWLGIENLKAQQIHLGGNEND
Put plainly: Inhibition of Enterococcus faecalis MurI.

Data set [12] has as its system Escherichia coli. Put plainly: Antimicrobial activity against Escherichia coli. In kind it is functional.

Values after ≈ are worked out from the molar mass of the structure shown.

`CNC1=Nc2ncccc2C(c2ccco2)=NC1c1cncs1` (stereo not given): in data set [1], the fraction unbound is 0.391. The CL was determined as 22 in data set [2] and 32 in data set [4]. Further, it took 4 µg/mL (≈ 12.4 µM) to inhibit growth in data set [3] (MIC). Besides, the IC50 (in general, the midpoint of a concentration-inhibition curve) in data set [5] turned out to be 8.6 µM.

With `CNC1=Nc2c(ccc[n+]2[O-])C(c2ccccc2)=NC1c1cccs1` (stereo not given), in data set [1], the fraction unbound is 0.353. Further, the CL was less than 14 in data set [2] and 41 in [4]. Also, the lowest concentration to inhibit growth in data set [3] (MIC) was 16 µg/mL (≈ 45.9 µM). 67 µM corresponded to half-maximal inhibition in data set [5] (IC50).

`c1ccc(C2=NC(c3cccs3)C(NC3CC3)=Nc3ccccc32)cc1` (stereo not given): the fraction unbound in [1] was 0.03. Further, the figures for the CL in data set [2] and in data set [4] were 50 and 74, respectively. Inhibition of growth in data set [3] (MIC) required 8 µg/mL (≈ 22.4 µM). For the same compound, in [5], it took 1.1 µM to reach half-maximal inhibition (IC50).

For `CNC1=Nc2cncnc2C(c2ccccc2)=NC1c1cccs1` (stereo not given), the fraction unbound in data set [1] was 0.158. For the same compound, the figures for the CL in [2] and in data set [4] were 36 and 26, respectively. The MIC – broadly, the lowest concentration that inhibits growth of the organism – in data set [3] was 64 µg/mL (≈ 192 µM). Besides, the IC50 in [5] is 50 µM.

Consider `OC1CN(C2=Nc3ccccc3C(c3ccccc3)=NC2c2cccs2)C1` (stereo not given), for which the fraction unbound in [1] is 0.01. Also, it took 0.25 µg/mL (≈ 0.669 µM) to inhibit growth in [3] (MIC).

`CCNC1=Nc2ccccc2C(c2ccccc2)=NC1c1cccs1` (stereo not given): in [1], the fraction unbound was 0.003. For the same compound, the CL was 46 in data set [2] and greater than 100 in data set [4]. Moreover, it took 2 µg/mL (≈ 5.79 µM) to inhibit growth in data set [3] (MIC). The compound further gave an IC50 in data set [5] of 1.1 µM.

With `CNC1=Nc2ncccc2C(c2cccs2)=NC1c1cccs1` (stereo not given), the fraction unbound in data set [1] is 0.03. Moreover, the values for the CL in [2] and in data set [4] were 30 and greater than 100, respectively. The compound further had a minimum inhibitory concentration (MIC) in data set [3] of 0.25 µg/mL (≈ 0.739 µM). Further, in [5], the IC50 stood at 0.7 µM.

Take `CNC1=Nc2nc(C)ccc2C(c2ccccc2)=NC1c1cccs1` (stereo not given): in data set [1], the fraction unbound is 0.039. For the same compound, the CL is reported as 73 in [2] and greater than 100 in data set [4]. In data set [3], it took 0.25 µg/mL (≈ 0.722 µM) to inhibit growth (MIC). Further, in data set [5], the half-inhibitory concentration (IC50) came out at 1.7 µM.

As to `CNC1=Nc2ncccc2C(c2ccccc2)=NC1c1cccs1` (stereo not given), the fraction unbound in data set [1] is 0.041. In addition, the CL in data set [2] came out at 40; in [4] it was 82. 0.17 µg/mL (≈ 0.511 µM) was the least that counted as inhibitory in data set [3] (MIC). Further, the IC50 in [5] came to 2.2 µM.

On to `CNC1=Nc2ncccc2C(C2CCCC2)=NC1c1cccs1` (stereo not given), for which the fraction unbound in [1] is 0.048. Further, the results for the CL in data set [2] and in data set [4] were 59 and greater than 100, respectively. For the same compound, it took 8 µg/mL (≈ 24.7 µM) to inhibit growth in data set [3] (MIC). In [5], 4.1 µM corresponded to half-maximal inhibition (IC50).

For the compound `CNC1=Nc2ncccc2C(c2ccco2)=NC1c1sccc1Cl` (stereo not given), the fraction unbound in data set [1] is 0.013. Also, the CL in [2] is on record as 74; in [4] it was greater than 150. Also, the MIC in [3] amounted to 0.5 µg/mL (≈ 1.4 µM). The compound also registered an IC50 in data set [5] of 2.8 µM.

In the case of `CNC1=Nc2ccccc2C(c2ccccc2)=NC1c1cccs1` (stereo not given), the fraction unbound in [1] was 0.003. For the same compound, the CL in data set [2] turned out to be 43; in data set [4], 97. In addition, in data set [6], the logD (usually lipophilicity at a set pH, counting ionised and neutral species) came out at 4.1. Also, the IC50 in [7] is greater than 400 µM; in data set [5] it was 1.7 µM; in data set [10] it was greater than 400 µM; in data set [11], greater than 400 µM. Besides, the MIC in data set [8] was greater than 64 µg/mL; in [3], 0.5 µg/mL (≈ 1.51 µM); in data set [9] it was greater than 64 µg/mL; in data set [12], greater than 64 µg/mL.

`NC1=Nc2ccccc2C(c2ccccc2)=NC1c1cccs1` (stereo not given): the fraction unbound in data set [1] was 0.02. Also, the CL in data set [2] and in data set [4] was greater than 100 each time. The same compound yielded an MIC in data set [3] of 32 µg/mL (≈ 101 µM). The IC50 in data set [5] worked out at 400 µM.

As for `CNC1=Nc2ncccc2C(c2ccco2)=NC1c1ccco1` (stereo not given), the fraction unbound in data set [1] is 0.193. The CL in data set [2] is 9; in data set [4], 19. Further, it took 8 µg/mL (≈ 26.1 µM) to inhibit growth in [3] (MIC). In [5], half-maximal inhibition (IC50) required 18.5 µM.

As for `c1ccc(C2=NC(c3cccs3)C(N3CCCC3)=Nc3ccccc32)cc1` (stereo not given), the CL in [2] is on record as 43; in [4], 87. Further, the MIC in data set [3] is 8 µg/mL (≈ 21.5 µM). Besides, the IC50 in data set [5] was 4 µM.

Consider `CNC1=Nc2ncccc2C(c2nccs2)=NC1c1cccs1` (stereo not given), for which the fraction unbound in data set [1] is 0.17. Further, the CL in data set [2] is on record as less than 14; in data set [4], 33. The same compound yielded an MIC in data set [3] of 1 µg/mL (≈ 2.95 µM). This compound also gave a concentration for half-maximal inhibition (IC50) in [5] of 1.7 µM.

On to `CNC1=Nc2ncccc2C(c2cc[nH]c2)=NC1c1cccs1` (stereo not given), for which the fraction unbound in data set [1] was 0.246. For the same compound, the figures for the CL in [2] and in data set [4] were 19 and 36, respectively. Also, in data set [3], 0.4 µg/mL (≈ 1.24 µM) was the least that counted as inhibitory (MIC). In data set [5], this compound came in with an IC50 of 0.6 µM.

Turning to `CNC1=Nc2ncccc2C(c2ccns2)=NC1c1cccs1` (stereo not given), the fraction unbound in data set [1] was 0.241. Further, the CL in [2] was 18; in data set [4] it was 37. Besides, the MIC in [3] is 0.32 µg/mL (≈ 0.943 µM). This compound also registered an IC50 in data set [5] of 1.1 µM.

Turning to `CNC1=Nc2ncccc2C(c2ncco2)=NC1c1cccs1` (stereo not given), the fraction unbound in [1] is 0.257. Further, the CL in [2] is reported as less than 5; in data set [4], 19. The compound also gave an MIC in [3] of 1 µg/mL (≈ 3.09 µM). In [5], the IC50 worked out at 7.7 µM.

With `CNC1=Nc2ncccc2C(c2ccco2)=NC1c1cccs1` (stereo not given), in data set [1], the fraction unbound was 0.182. Further, the CL in data set [2] is listed as 13; in [4] it was 30. In data set [3], it took 0.19 µg/mL (≈ 0.589 µM) to inhibit growth (MIC). Also, the IC50 in data set [5] worked out at 2 µM.

Consider `CNC1=Nc2ncccc2C(c2ccco2)=NC1c1cc(C#CC(C)O)cs1` (stereo not given), for which the fraction unbound in data set [1] is 0.091. The CL in data set [2] came to 7; in [4], 17. The minimum inhibitory concentration (MIC) in data set [3] stood at 4 µg/mL (≈ 10.2 µM). The IC50 in data set [5] was determined as 4.9 µM.

Take `CNC1=Nc2ncccc2C(c2ccco2)=NC1c1ccns1` (stereo not given): the fraction unbound in data set [1] is 0.264. The figures for the CL in data set [2] and in [4] were 26 and 27, respectively. This compound came in with an MIC in data set [3] of 2 µg/mL (≈ 6.18 µM). In data set [5], this compound came in with an IC50 of 8.7 µM.

As for `COCCNC1=Nc2ccccc2C(c2ccccc2)=NC1c1cccs1` (stereo not given), the CL in data set [2] is on record as 80; in data set [4], greater than 100. In data set [3], this compound showed a minimum inhibitory concentration (MIC) of 32 µg/mL (≈ 85.2 µM). Besides, the IC50 in [5] is 18.9 µM.

`CCCNC1=Nc2ccccc2C(c2ccccc2)=NC1c1cccs1` (stereo not given): the CL is on record as 30 in [2] and greater than 100 in data set [4]. Besides, the minimal inhibitory concentration (MIC) in [3] was found to be 16 µg/mL (≈ 44.5 µM). Besides, 4 µM corresponded to half-maximal inhibition in data set [5] (IC50).

`CNC1=Nc2ccc(Cl)cc2C(c2ccccc2)=NC1c1cccs1` (stereo not given): the CL is on record as 52 in [2] and greater than 100 in data set [4]. This compound also had an MIC in data set [3] of 8 µg/mL (≈ 21.9 µM). Also, the IC50 in [5] was found to be 13 µM.

The values are drawn from ChEMBL document CHEMBL1143274, “Potent and selective inhibitors of Helicobacter pylori glutamate racemase (MurI): pyridodiazepine amines” (Bioorg Med Chem Lett, 2009).
